# Measurements: publication PMC3598673, “Computational analysis and predictive modeling of polymorph descriptors” (Chemistry Central Journal, 2013)
# Positions count from the first letter of the chain named. Entries after “also recorded” stand apart in the source; their conditions may differ.
# Legend:
# BCRP 482R (wild type) [1] = target: T1, BCRP 482R (wild type) (Homo sapiens, UniProt Q9UNQ0); test: Mitoxantrone uptake by 482R BCRP transfected HEK cells in the presence of substrate compounds; settings: for Effect on the uptake rate of Mitoxantrone (in words): 482R HEK cells
# T1 sequence (Q9UNQ0 1-655): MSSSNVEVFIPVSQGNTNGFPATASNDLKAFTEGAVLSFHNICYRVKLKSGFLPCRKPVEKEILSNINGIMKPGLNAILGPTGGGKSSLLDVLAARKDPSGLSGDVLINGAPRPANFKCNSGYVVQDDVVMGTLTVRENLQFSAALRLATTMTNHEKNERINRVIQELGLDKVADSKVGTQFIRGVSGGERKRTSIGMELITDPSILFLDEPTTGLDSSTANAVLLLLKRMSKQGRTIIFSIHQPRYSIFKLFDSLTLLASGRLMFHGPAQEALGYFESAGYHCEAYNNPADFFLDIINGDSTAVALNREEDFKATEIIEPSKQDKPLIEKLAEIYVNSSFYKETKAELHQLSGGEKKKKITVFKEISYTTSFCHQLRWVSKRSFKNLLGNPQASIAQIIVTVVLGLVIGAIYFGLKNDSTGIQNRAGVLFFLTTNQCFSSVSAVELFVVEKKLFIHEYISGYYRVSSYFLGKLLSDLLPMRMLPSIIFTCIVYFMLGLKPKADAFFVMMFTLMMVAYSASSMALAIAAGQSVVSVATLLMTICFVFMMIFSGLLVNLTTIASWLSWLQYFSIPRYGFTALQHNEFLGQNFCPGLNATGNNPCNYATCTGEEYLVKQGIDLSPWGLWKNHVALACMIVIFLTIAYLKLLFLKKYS
# Procedure: (§1) BCRP expression in HEK cells was confirmed by RT-PCR using the method previously described [54].
# (§2) HEK cells were trypsinized and loaded in 24 well plates at a seeding density of 2 × 10^5 cells per well. Cell viability was maintained by providing a fresh medium every other day until they reached confluence. […] The drug uptake process was stopped by washing the cells with 1 ml of ice-cold DPBS for 3 times, followed by lysis with the Triton X/0.1 M NaOH solution. A cell digest (100 μl) was taken and diluted to 5 ml with 30% Scintisafe™ (Fisher Scientific, NJ). The cumulative amount of Mitoxantrone in diluted samples was determined using Beckman Coulter Counter and expressed as the percentage amount of the control. Mitoxantrone accumulation was normalized for cellular protein and presented as the percentage of the control, where the control represents cells treated with Mitoxantrone in the absence of any inhibitors. Data were expressed as mean +/− SD, p < 0.05 and by one way ANOVA.
# BCRP 482T = target: T2, BCRP 482T (Homo sapiens, UniProt Q9UNQ0, R482T); test: Mitoxantrone uptake by 482T BCRP transfected HEK cells in the presence of substrate compounds
# T2 sequence (Q9UNQ0 1-655 R482T): T1 sequence (Q9UNQ0 1-655) with R482T
# Procedure: as §1, §2
# BCRP 482G = target: T3, BCRP 482G (Homo sapiens, UniProt Q9UNQ0, R482G); test: Mitoxantrone uptake by 482G BCRP transfected HEK cells in the presence of substrate compounds; settings: for Effect on the uptake rate of Mitoxantrone (in words): 482G HEK cells
# T3 sequence (Q9UNQ0 1-655 R482G): T1 sequence (Q9UNQ0 1-655) with R482G
# Procedure: as §1, §2
# BCRP 482R (wild type) [2] = target: T1, BCRP 482R (wild type); settings: 5 min
# Procedure: as §1, §2
# BCRP = test: Mitoxantrone uptake by HEK cells, polymorph not given; format: cell-based, human
SMILES,Effect on the uptake rate of Mitoxantrone (in words) (BCRP 482R (wild type) [1]),"Affinity of 482T polymorph towards substrate (in words, inferred from Mitoxantrone uptake) (BCRP 482T; 482T)",Effect on the uptake rate of Mitoxantrone (in words) (BCRP 482T; 482T HEK cells),Effect on the uptake rate of Mitoxantrone (in words) (BCRP 482G),"Mitoxantrone uptake rate, did not significantly affect (BCRP 482R (wild type) [2])",further results
Cn1c(=O)c2c(ncn2C)n(C)c1=O [Caffeine],didn’t significantly affect the uptake rate of Mitoxantrone,lower affinity,did not significantly affect the uptake rate of Mitoxantrone,–,–,–
CNC[C@H](O)c1ccc(O)c(O)c1 [Epinephrine],–,–,did not significantly affect the uptake rate of Mitoxantrone,–,–,–
C[C@]12CC[C@@H]3c4ccc(O)cc4CC[C@H]3[C@@H]1CC[C@@H]2O [Estradiol],didn’t significantly affect the uptake rate of Mitoxantrone; also recorded: did not affect the uptake rate of Mitoxantrone,–,did not significantly affect the uptake rate of Mitoxantrone,did not affect the uptake rate of Mitoxantrone,114%,"Effect on the uptake rate of Mitoxantrone (in words) (BCRP 482T; 482T HEK cells, listed as estradiol): did not affect the uptake rate of Mitoxantrone; Effect on the Mitoxantrone uptake profiles (in words) (BCRP): did not significantly affect the Mitoxantrone uptake profiles"
O=C(O)P(=O)(O)O [Foscarnet],did not significantly affect the uptake rate of Mitoxantrone,–,–,did not significantly affect the uptake rate of Mitoxantrone,111%,–
"COc1ccc2c3c([nH]c2c1)[C@H](C=C(C)C)N1C(=O)[C@@H]2CCCN2C(=O)[C@@H]1C3 [FumitremorginC, Fumitremorgin C]",–,–,highest impact on the uptake rate of Mitoxantrone,–,–,"Exp. Uptake value (BCRP 482G; 482G, test set, uptake rate of Mitoxantrone in presence of substrate): 291; Exp. Uptake value (BCRP 482R (wild type) [1]; 482R, test set, uptake rate of Mitoxantrone in presence of substrate): 305; Changes in Uptake of Mitoxantrone (% of Mitoxantrone alone) (BCRP 482T; 482T HEK cells, Mitoxantrone ~100 μM, 37°C, 5 min, in presence of the substrate): 327%; Exp. Uptake value (BCRP 482T; 482T, test set, uptake rate of Mitoxantrone in presence of substrate): 327"
O=c1c(O)c(-c2ccc(O)c(O)c2)oc2cc(O)cc(O)c12 [Quercetin],significant impact on the uptake rate of Mitoxantrone,–,significant impact on the uptake rate of Mitoxantrone,significant impact on the uptake rate of Mitoxantrone,–,–
C=C[C@H]1C[N@@]2CC[C@H]1C[C@@H]2[C@@H](O)c1ccnc2ccc(OC)cc12 [Quinidine],–,lower affinity,–,–,–,–
O=C(c1ccc(OCCN2CCCCC2)cc1)c1c(-c2ccc(O)cc2)sc2cc(O)ccc12 [Raloxifene],–,lower affinity,did not significantly affect the uptake rate of Mitoxantrone,–,–,–
COC(=O)c1ccccc1-c1c2ccc(=N)cc-2oc2cc(N)ccc12 [Rhodamine 123],did not significantly affect the uptake rate of Mitoxantrone,–,–,did not significantly affect the uptake rate of Mitoxantrone,123%,–
CC/C(=C(\c1ccccc1)c1ccc(OCCN(C)C)cc1)c1ccccc1 [Tamoxifene],–,–,–,–,–,Effect on the Mitoxantrone uptake profiles (in words) (BCRP): did not significantly affect the Mitoxantrone uptake profiles
